In patent publication US10125116B2, “Compounds and methods for treating mammalian gastrointestinal microbial infections” (Brandeis University, priority 2009, dated 2018):
Where two headings read alike, the source gives them in different places.

Legend:
[1] = target: CpIMPDH, HpIMPDH, BbIMPDH, SpIMPDH, EcIMPDH and TfIMPDH
[2] = tested on: HCT-8 cells; experiment: fluorescent HCT-8 host cell growth assay; format: cell-based, human
Text: The differentiation of selective antiparasitic effects from those that are a secondary consequence of a host cell effect is a critical issue in drug discovery for intracellular parasites. Cytotoxicity assays commonly reflect plasma membrane integrity, and are a crude measure of host cell effects—it is conceivable that more subtle perturbations of host cell metabolism can have an adverse effect on parasite proliferation. Therefore we sought to develop a simple and inexpensive assay of host cell growth. The human ileocecal adenocarcinoma epithelial cell line, HCT-8, which is commonly used to maintain C. parvum infection in tissue culture, was engineered to constitutively express a green fluorescent protein (GFP). Growth of this cell line was monitored daily using a fluorescent plate reader. […] These experiments validate the use of the fluorescent HCT-8 cell growth assay.
HCT-8 cells were transfected with the pmaxGFP plasmid (Amaxa) using Lipofectamine (Invitrogen) following the manufactures instruction. Fluorescent lines were then selected and cloned using FACS. Confluent monolayers of pmaxGFP expressing cells were harvested from T75 flasks and passed through a 40 μm cell strainer. Cells were then seeded at 4000 cells per well in a volume of 200 μL into black, optical quality, thin bottom, 96-well plates (DB Falcon). All test compounds were diluted in DMSO to prepare a 200× working stock for each dilution. Appropriate wells were spiked with 1 μl such that the final concentration of DMSO was 0.5%. The fluorescence was read daily with a SpectraMax M22/M2e (Molecular Devices) plate reader (Ex 485, Em 530) for 6-7 days. The percent inhibition was calculated on a day within the exponential phase of growth.

[3] = tested on: T. gondii-CpIMPDH; experiment: T. gondii-CpIMPDH fluorescence growth assay; format: cell-based, Toxoplasma gondii
[4] = tested on: wild-type T. gondii; experiment: wild-type T. gondii fluorescence growth assay; format: cell-based; details: Toxoplasma gondii
[5] = tested on: T. gondii-ΔHXGPRT; experiment: T. gondii-ΔHXGPRT fluorescence growth assay; format: cell-based; details: Toxoplasma gondii, read-out: EC50 T. gondii-ΔHXGPRT growth
[6] = tested on: primary human, mouse, rat, and dog lymphocytes; details: cited from earlier work
[7] = read-out: intrinsic Ki (adjusted for competition from the mobile flap), range over IMPDHs

melting point [°C] | SMILES | also measured
98 to 100 | CC(Oc1cccc2ccccc12)c1cn(-c2ccc(Cl)cc2)nn1 (centres unmarked) [Compound 1, 1-(4-chlorophenyl)-4-(1-(naphthalene-1-yloxy)ethyl)-1H-1,2,3-triazole] | –
204 to 206 | O=C(Nc1ccc(Cl)cc1)C(Oc1cccc2ccccc12)C1CC1 (centres unmarked) [Compound 119, N-(4-chlorophenyl)-2-cyclopropyl-2-(1-naphthalenyloxy)acetamide] | –
216 to 218 | CC(Oc1cc[n+]([O-])c2ccccc12)c1cn(-c2ccc(Cl)c(Cl)c2)nn1 (centres unmarked) [Compound 26, 4-(1-(1-(3,4-dichlorophenyl)-1H-1,2,3-triazol-4-yl)ethoxy)quinoline 1-oxide] | –
176 to 178 | C[C@@H](Oc1ccnc2ccccc12)c1cn(-c2ccc(C#N)c(Cl)c2)nn1 | –
94 to 96 | C[C@@H](Oc1cccc2ncccc12)c1cn(-c2ccc(Cl)cc2)nn1 [Compound 21, (R)-5-(1-(1-(4-chlorophenyl)-1H-1,2,3-triazol-4-yl)ethoxy)quinoline] | –
– | NC(=O)c1csc([C@@H]2O[C@H](CO)[C@@H](O)[C@H]2O)n1 [Tiazofurin, tiazofurin] | Ki ([1]; read-out: Ki (observed), range over prokaryotic IMPDHs): 1000 to 69000 µM; Ki [1, 7]: 300 to 700 µM
194 to 196 | CC(Oc1ccnc2ccccc12)c1cn(-c2ccc(C#N)c(Cl)c2)nn1 (centres unmarked) | –
– | C[C@@H](Oc1ccnc2ccccc12)c1cn(-c2ccc(Cl)c(Cl)c2)nn1 [A105] | host cell (HCT-8) growth effect, in words [2]: do not inhibit host cell growth; selectivity for T. gondii-CpIMPDH parasite over wild-type T. gondii [3]: little selectivity
146 to 148 | CC(Oc1cccc2ccccc12)C(=O)Nc1ccc(Cl)cc1 (centres unmarked) [Compound 93, N-(4-chlorophenyl)-2-(1-naphthalenyloxy)propanamide] | –
– | CC(Oc1ccc(Cl)c2ccccc12)c1cn(-c2ccc(Cl)cc2)nn1 (centres unmarked) [A82] | host cell (HCT-8) growth effect, in words [2]: do not inhibit host cell growth; selectivity for T. gondii-CpIMPDH parasite over wild-type T. gondii [3]: little selectivity
170 to 172 | CC(Oc1ccnc2ccccc12)C(=O)Nc1ccc(Cl)cc1 (centres unmarked) [Compound 114, N-(4-chlorophenyl)-2-[[4-quinolinyl]oxy]propanamide] | –
64 to 66 | C[C@H](Oc1ccnc2ccccc12)c1cn(-c2ccc(Cl)c(Cl)c2)nn1 [Compound 30, (S)-4-(1-(1-(3,4-dichlorophenyl)-1H-1,2,3-triazol-4-yl)ethoxy)quinoline] | –
150 to 152 | CC(C)C(Oc1cccc2ccccc12)C(=O)Nc1ccc(Cl)cc1 (centres unmarked) [Compound 116, N-(4-chlorophenyl)-3-methyl-2-(1-naphthalenyloxy)butanamide] | –
– | CCCC(=O)[O-].[Na+] [Sodium butyrate, reference compound] | host cell (HCT-8) growth effect, in words ([2]; human): inhibit HCT-8 growth in a dose-dependent manner
176 to 178 | CC(Oc1ccnc2ccccc12)c1cn(-c2ccc(C#N)cc2)nn1 (centres unmarked) [Compound 15, 4-(4-(1-(quinolin-4-yloxy)ethyl)-1H-1,2,3-triazol-1-yl)benzonitrile] | –
– | CC(Oc1ccnc2ccccc12)c1cn(-c2ccc(Cl)c(Cl)c2)nn1 (centres unmarked) [A90] | host cell (HCT-8) growth effect, in words [2]: do not inhibit host cell growth; selectivity for T. gondii-CpIMPDH parasite over wild-type T. gondii [3]: little selectivity
176 to 178 | C[C@H](Oc1ccnc2ccccc12)c1cn(-c2ccc(C#N)c(Cl)c2)nn1 | –
– | C[C@@H](Oc1cc[n+]([O-])c2ccccc12)c1cn(-c2ccc(Cl)cc2)nn1 [A110] | host cell (HCT-8) growth effect, in words [2]: negligible effects on host cell growth
128 to 130 | CC(Oc1ccnc2ccccc12)c1cn(-c2ccc(Cl)cc2)nn1 (centres unmarked) [Compound 13, 4-(1-(1-(4-chlorophenyl)-1H-1,2,3-triazol-4-yl)ethoxy)quinoline] | –
– | Nc1ncnc2c1ncn2[C@@H]1O[C@H](COP(=O)(O)OP(=O)(O)O)[C@@H](O)[C@H]1O [ADP] | Ki [1, 7]: 200 to 9000 µM
– | COc1c(C)c2c(c(O)c1C/C=C(\C)CCC(=O)O)C(=O)OC2 [MPA, mycophenolic acid] | EC50 ([4]; media with xanthine (0.33 mM), read-out: EC50 wild-type T. gondii growth, xanthine supplemented): ≥ 78 µM; EC50 ([4]; read-out: EC50 wild-type T. gondii growth): 2.6 µM; EC50 [5]: 0.29 µM; EC50 ([3]; Toxoplasma gondii, read-out: EC50 T. gondii-CpIMPDH growth): > 65 µM
230 to 232 | Clc1ccc(-n2cc(COc3ccnc4ccccc34)nn2)cc1 [Compound 17, 4-((1-(4-chlorophenyl)-1H-1,2,3-triazol-4-yl)methoxy)quinoline] | –
165 to 167 | CC(Oc1cccc2c1ccc[n+]2[O-])c1cn(-c2ccc(Cl)cc2)nn1 (centres unmarked) [Compound 25, 5-(1-(1-(4-chlorophenyl)-1H-1,2,3-triazol-4-yl)ethoxy)quinoline 1-oxide] | –
184 to 186 | C[C@@H](Oc1cccc2c1ccc[n+]2[O-])c1cn(-c2ccc(Cl)cc2)nn1 [Compound 32, (R)-5-(1-(1-(4-chlorophenyl)-1H-1,2,3-triazol-4-yl)ethoxy)quinoline 1-oxide] | –
– | COc1cc(NC(=O)Nc2cccc(CNC(=O)O[C@H]3CCOC3)c2)ccc1-c1cnco1 [merimepodib] | concentration inhibiting lymphocyte proliferation [6]: ~100 nM

SMILES | melting point [°C] | also measured
O=C(Nc1ccc(Cl)cc1)C(Oc1cccc2ccccc12)c1ccccc1 (stereo not drawn) [Compound 102, N-(4-chlorophenyl)-α-(1-naphthalenyloxy)benzeneacetamide] | 176 to 178 | –
C[C@@H](Oc1ccnc2ccccc12)c1cn(-c2ccc(Cl)c(Cl)c2)nn1 [Compound 28, (R)-4-(1-(1-(3,4-dichlorophenyl)-1H-1,2,3-triazol-4-yl)ethoxy)quinoline] | 62 to 64 | –
CC(Oc1ccnc2ccccc12)c1cn(-c2ccc(Cl)c(Cl)c2)nn1 (centres unmarked) [Compound 14, 4-(1-(1-(3,4-dichlorophenyl)-1H-1,2,3-triazol-4-yl)ethoxy)quinoline] | 62 to 64 | –
